Data published in patent US4863748A, “Dietary products and uses comprising methylsulfonylmethane” (priority 1986, dated 1989).
Like-named read-outs stand apart in the source and are kept apart here.

Experiments:
arthritis = test: Canine arthritis and other sources of pain (Example 30); format: in vivo, dog
Description: In each case the methylsulfonylmethane was admixed with the animal's food just prior to feeding.
This animal, although owned by a veterinarian, had not responded to a variety of therapeutic regimens over the previous 12 months. Methylsulfonylmethane was given to this dog in its food at a level of 1.5 grams b.i.d. X 1 month.
It was mobile but walked with obvious difficulty and discomfort. The animals was refractory to both cortisone and phenylbutazone.
The animal had not responded to either cortisone nor phenylbutazone and its condition was deteriorating rapidly. Methylsulfonylmethane was included in its diet at 1 gm/day b.i.d. After one week, the dog appeared to be pain-free.

[1] = test system: scarification of the right cheek pouch; test: Wound healing of the cheek pouch in hamsters (Example 17); format: in vivo; settings: 0.1 gm/kg methylsulfonylmethane alone or 100 mg ascorbic acid alone in feed; controls day 4 and 5
Description: Four sets of 5 hamsters were subject to scarification of the right cheek pouch, using standard methodology. One week prior to pouch injury, one set was started on a daily regimen of 0.1 gm/kg of methylsulfonylmethane in the diet of standard hamster feed, a second group was given 0.1 gm/kg of methylsulfonylmethane plus 100 mg of ascorbic acid in the same feed, a third group was given only 100 mg of ascorbic acid in the same feed, and the last group, fed only the feed, was held as control. Daily post-scarification examination was made to determine the rate of injury repair.

intractable pain = test: Pain in humans (Example 31); format: in vivo, human
Description: The following patients suffering from intractable pain were given methylsulfonylmethane orally in the amounts and for the period of time set forth in the table below: […]

Aspergillus niger = test: Antifungal activity; format: cell-based; settings: 500 ppm
Description: (§1) While not as potent or toxic to microbial populations as specific drug agents, by reason of its extremely low host systemic toxicity, methylsulfonylmethane contrasts sharply with present antiinfective therapeutants and methodology. It is doubtful if chemical resistance will develop with infective agents controlled by high, but safe, systemic levels of methylsulfonylmethane.

Phytophthora cinnamomi = test: Antifungal activity; format: cell-based; settings: 500 ppm
Description: as §1

Trichomonas vaginalis = test: Treatment of Trichomonas vaginalis infection in subjects (Example 28(a)); format: in vivo, human
Description: Both had prior courses of therapy for this disorder without adequate response. […]
One subject was later reinfected by their sexual partner but the reinfection was cleared employing a daily douche of 5% aqueous methylsulfonylmethane for one week.

[2] = test system: urinary taurine secretion; settings: man; cited from earlier work
skin = test: Effect on skin tissue; settings: in vivo
Description: Studies to date indicate that it is desirable that animals ingest about 0.5-1.0 milligram/kg body weight/day of methylsulfonylmethane to maintain optimum good health. However, any lower level will serve some benefit. Higher levels are either stored in the body as a sulfur reserve, provide a sufficient concentration to optimize synthesis of the multitude of required sulfur containing biomolecules, or simply are excreted as by the renal pathway or through the skin.

acute pain = test: Acute pain (Example 21); format: in vivo, human; settings: single 1.5 gm dose; two 1 gm doses at 4-hour intervals, oral
[3] = test system: pain in the mid-back region; test: Acute pain, comparison with codeine, urinary calculi, subject three (Example 32); format: in vivo, human; settings: 1.5 g in warm water, oral
Description: Methylsulfonylmethane was compared with codeine for the control of pain in subject three, a person who awakened in the early morning with excruciating pain in the mid-back region, so intense it was difficult to pin-point a specific region. […] Analgesic requirements were 1/2 grain codeine with aspirin every two hours. […] The intense pain returned. The subject was given 1.5 g of methylsulfonylmethane dissolved in 1/2 glass of warm water. At 0.5 hours after taking the methylsulfonylmethane, the pain had essentially disappeared. Methylsulfonylmethane (1.5 g/day) was continued until the afternoon of the third day, when X-ray confirmed that the calculi yet obstructed the ureter. Subject was switched again to codeine with aspirin (1/2 grain×2 hours). […] Methylsulfonylmethane was again administered (1.5 g×4 hours). On day 5 the calculi passed. Recovery was uneventful, requiring neither codeine, methylsulfonylmethane,nor a urinary tract antimicrobial.

[4] = Tolerance and toxicity on ingestion; format: in vivo, animals; settings: for NOAEL: in vivo, po
Description: The methylsulfonylmethane is usually provided in the aninmal's normal feed rations, periodically throughout the day or on successive days, or both, e.g., for 2 to 21 days or even longer. The daily food ration appropriate for the animal being fed is supplemented with an amount of methylsulfonylmethane calculated to correspond to a predetermined amount per total body weight of the animals being fed. The exact amount of methylsulfonylmethane ingested each day is not always critical, particularly when methylsulfonylmethane administration is over an extended period of days, because the ingested methylsulfonylmethane accumulates in the body tissues and fluids, i.e., reaches an effective titer. Methylsulfonylmethane-supplemented rations providing levels of as low as 0.5-1 mg/kg animal body weight are sometimes effective and levels as high as 300 mg/kg body weight or more are well tolerated. The usual target level per individual animal is about 0.2-2.0 mg/kg body weight preferably 0.5-1.0 mg per kg body weight. Total daily supplements corresponding to up to about 1 gm/kg body weight or more, are preferably employed, depending on the degree of deficiency. Healthy animals often have methylsulfonylmethane blood levels of at least 1 ppm, and desirably, enough methylsulfonylmethane is provided to raise blood levels to above 1 ppm. The oral ingestion of amounts of methylsulfonylmethane in excess of that required to elevate blood levels is not harmful because of the extremely non-toxic nature of methylsulfonylmethane.
One can safely administer 1-2 grams/kg body wt. of methylsulfonylmethane on a daily basis (equal to 1000-2000 ppm w/w basis). One therefore builds a safely tolerated blood level of about 4000 ppm, which level is highly toxic to many infective organism yet is harmless to the host. Methylsulfonylmethane provides a unique new therapeutic approach, used alone or with concurrent, conventional therapy.

Structure (SMILES): CS(C)(=O)=O [methylsulfonylmethane]
- benefit, Dog A (arthritis; Dog A, 0.5 g/day b.i.d., 7 days): without apparent benefit
- time to free mobility without evident discomfort nor ataxia, Dog A (arthritis; Dog A, 1.5 g/day b.i.d.): ≤ 10 days
- benefit, Dog B (arthritis; Dog B, 1.5 grams b.i.d. X 1 month): no apparent benefit
- mobility over the first month, Dog C (arthritis; Dog C, 0.5 grams b.i.d.): gradual improvement
- musculoskeletal restriction and discomfort in third month, Dog C (arthritis; Dog C, 0.5 grams b.i.d.): neither musculoskelatal restriction nor discomfort
- pain after one week, Dog D (arthritis; Dog D, 1 gm/day b.i.d.): pain-free
- state at over six months, Dog D (arthritis; Dog D, 1 gm/day b.i.d.): apparently healthy and frisky, requiring no medication
- day on which the 36-hour combination healing result was matched [1]: three
- Results (intractable pain; A. B., 69 F, Deg. Arth., 0.5 bid × 18 months): pain relief
- Results (intractable pain; B. A., 63 F, Deg. Arth., 0.25 g qid): pain relief
- Results: pain relief (intractable pain; C. A., 62 M, Bursitis Chronic, 0.25 g bid × 3 months): 50%
- Results (intractable pain; D. B., 35 M, Low back pain, 0.5 g qid × 9 months): pain relief
- Results: muscle pain (intractable pain; I. B., 62 F, Multiple Sclerosis, 0.5 bid × 18 months): reduction
- Results (intractable pain; M. A., 55 F, Rh. Arth., 0.25 g bid × 9 months): pain relief
- Results (intractable pain; N. B., 62 M, Tendonitis, 0.25 g qid): reduced pain
- Results (intractable pain; P. A., 61 F, Deg. Arth., 1 g 4×/day × 19 months): pain relief
- antiparasitic (antifungal) activity (Aspergillus niger): good antiparasitic activity
- antiparasitic (antifungal) activity (Phytophthora cinnamomi): good antiparasitic activity
- outcome in subject's partner (Trichomonas vaginalis; 500 mg twice daily, two weeks): successfully treated
- reinfection (Trichomonas vaginalis; daily douche of 5% aqueous, one week): cleared
- urinary taurine secretion produced by aromatic hydrocarbons [2]: enhances
- pliability and softness of the skin (skin): improving
- relief of acute mid-back pain (calculi obstructed ureter) and lower abdomen pain spasms (acute pain): proven useful in relieving acute pain
- time after which the pain had essentially disappeared [3]: 0.5 h
- acute and chronic toxicity ([4]; in the host's diet): remarkably low
- NOAEL ([4]; daily basis, read-out: safely administered daily dose): 1000 to 2000 mg/kg/day
- NOAEL ([4]; supplemented rations, or more, read-out: well tolerated level in rations): ≥ 300 mg/kg
- toxicity at high (greater than 1 gm/kg body wt.) blood levels ([4]; primates, at least two years): lack evidence of methylsulfonylmethane toxicity
